Results taken from patent US20240425517A1, “NOVEL COMPOUND FOR DEGRADATION OF TARGET PROTEIN OR POLYPEPTIDE BY POLYUBIQUITINATION” (PRAZER THERAPEUTICS INC., priority 2021, published 2024).

Biological target: T1, BRD4 proteins (Homo sapiens, UniProt O60885)
T1 construct: endogenous in cells; host or cells: MM.1S
Assay: Degradation of BRD4 protein in MM.1S cell lines (Western blot densitometry)
Assay type: cell-based
Details: MM.1S cells, 10 μM, 24 hours
Procedure, shortened: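 MM.1S cells in RPMI-1640 with 10% FBS were treated with each degrader at 10 μM for 24 h. RIPA lysates were analysed by SDS-PAGE/Western blot with β-actin as reference, and BRD4 band densitometry was scored as reduction <40% (+), 40-<70% (++) or ≥70% (+++).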

SMILES	BRD4 degrading capacity (%)
COC(=O)c1ccc(N2CCN(C(=O)C[C@@H]3N=C(c4ccc(Cl)cc4)c4c(sc(C)c4C)-n4c(C)nnc43)CC2)cc1C#CCN.Cl [5-7′, methyl (S)-2-(3-aminoprop-1-yn-1-yl)-4-(4-(2-(4-(4-chlorophenyl)-2,3,9-trimethyl-6H-thieno[3,2-f][1,2,4]triazolo[4,3-a][1,4]diazepin-6-yl)acetyl)piperazin-1-yl)benzoate hydrochloride]	+ (the degrading capacity of each BRD4 degrader was reduced by less than 40%)
Cc1sc2c(c1C)C(c1ccc(Cl)cc1)=N[C@@H](CC(=O)NCCCC(=O)Nc1ccc(C#CCN)c(CO)c1)c1nnc(C)n1-2.Cl [5-8′, (S)—N-(4-(3-aminoprop-1-yn-1-yl)-3-(hydroxymethyl)phenyl)-4-(2-(4-(4-chlorophenyl)-2,3,9-trimethyl-6H-thieno[3,2-f][1,2,4]triazolo[4,3-a][1,4]diazepin-6-yl)acetamido)butanamide hydrochloride]	++ (the degrading capacity was reduced by 40% to 70% (exclusive of 70))
Cc1sc2c(c1C)C(c1ccc(Cl)cc1)=N[C@@H](CC(=O)NCCCCC(=O)Nc1ccc(C#CCN)c(CO)c1)c1nnc(C)n1-2.Cl [5-9′, (S)—N-(4-(3-aminoprop-1-yn-1-yl)-3-(hydroxymethyl)phenyl)-5-(2-(4-(4-chlorophenyl)-2,3,9-trimethyl-6H-thieno[3,2-f][1,2,4]triazolo[4,3-a][1,4]diazepin-6-yl)acetamido)pentanamide hydrochloride]	++ (the degrading capacity was reduced by 40% to 70% (exclusive of 70))
COC(=O)c1ccc(OCCCCNC(=O)C[C@@H]2N=C(c3ccc(Cl)cc3)c3c(sc(C)c3C)-n3c(C)nnc32)cc1C#CCN.Cl [5-12′, methyl (S)-2-(3-aminoprop-1-yn-1-yl)-4-(4-(2-(4-(4-chlorophenyl)-2,3,9-trimethyl-6H-thieno[3,2-f][1,2,4]triazolo[4,3-a][1,4]diazepin-6-yl)acetamido)butoxy)benzoate hydrochloride]	+++ (the degrading capacity was reduced by 70% or more)
COC(=O)c1ccc(C(=O)NCCCNC(=O)C[C@@H]2N=C(c3ccc(Cl)cc3)c3c(sc(C)c3C)-n3c(C)nnc32)cc1C#CCN.Cl [5-18′, methyl (S)-2-(3-aminoprop-1-yn-1-yl)-4-((3-(2-(4-(4-chlorophenyl)-2,3,9-trimethyl-6H-thieno[3,2-f][1,2,4]triazolo[4,3-a][1,4]diazepin-6-yl)acetamido)propyl)carbamoyl)benzoate hydrochloride]	+++ (the degrading capacity was reduced by 70% or more)
COC(=O)c1ccc(C(=O)NC2CCN(C(=O)C[C@@H]3N=C(c4ccc(Cl)cc4)c4c(sc(C)c4C)-n4c(C)nnc43)CC2)cc1C#CCN.Cl [5-22′, methyl (S)-2-(3-aminoprop-1-yn-1-yl)-4-((1-(2-(4-(4-chlorophenyl)-2,3,9-trimethyl-6H-thieno[3,2-f][1,2,4]triazolo[4,3-a][1,4]diazepin-6-yl)acetyl)piperidin-4-yl)carbamoyl)benzoate hydrochloride]	+++ (the degrading capacity was reduced by 70% or more)
COC(=O)c1ccc(NC(=O)C2CCN(C(=O)C[C@@H]3N=C(c4ccc(Cl)cc4)c4c(sc(C)c4C)-n4c(C)nnc43)CC2)cc1C#CCN.Cl [5-23′, methyl (S)-2-(3-aminoprop-1-yn-1-yl)-4-(1-(2-(4-(4-chlorophenyl)-2,3,9-trimethyl-6H-thieno[3,2-f][1,2,4]triazolo[4,3-a][1,4]diazepin-6-yl)acetyl)piperidine-4-carboxamido)benzoate hydrochloride]	+++ (the degrading capacity was reduced by 70% or more)
COC(=O)c1ccc(NC(=O)CCNC(=O)C2CCN(C(=O)C[C@@H]3N=C(c4ccc(Cl)cc4)c4c(sc(C)c4C)-n4c(C)nnc43)CC2)cc1C#CCN.Cl [5-25′, methyl (S)-2-(3-aminoprop-1-yn-1-yl)-4-(3-(1-(2-(4-(4-chlorophenyl)-2,3,9-trimethyl-6H-thieno[3,2-f][1,2,4]triazolo[4,3-a][1,4]diazepin-6-yl)acetyl)piperidine-4-carboxamido)propanamido)benzoate hydrochloride]	+++ (the degrading capacity was reduced by 70% or more)
COC(=O)c1ccc(NC(=O)CCCNC(=O)C2CCN(C(=O)C[C@@H]3N=C(c4ccc(Cl)cc4)c4c(sc(C)c4C)-n4c(C)nnc43)CC2)cc1C#CCN.Cl [5-26′, methyl (S)-2-(3-aminoprop-1-yn-1-yl)-4-(4-(1-(2-(4-(4-chlorophenyl)-2,3,9-trimethyl-6H-thieno[3,2-f][1,2,4]triazolo[4,3-a][1,4]diazepin-6-yl)acetyl)piperidine-4-carboxamido)butanamido)benzoate hydrochloride]	++ (the degrading capacity was reduced by 40% to 70% (exclusive of 70))
COC(=O)c1ccc(C(=O)NCCCNC(=O)C2CCN(C(=O)C[C@@H]3N=C(c4ccc(Cl)cc4)c4c(sc(C)c4C)-n4c(C)nnc43)CC2)cc1C#CCN.Cl [5-27′, methyl (S)-2-(3-aminoprop-1-yn-1-yl)-4-((3-(1-(2-(4-(4-chlorophenyl)-2,3,9-trimethyl-6H-thieno[3,2-f][1,2,4]triazolo[4,3-a][1,4]diazepin-6-yl)acetyl)piperidine-4-carboxamido)propyl)carbamoyl)benzoate hydrochloride]	++ (the degrading capacity was reduced by 40% to 70% (exclusive of 70))
COC(=O)c1ccc(C#CCNC(=O)C2CCN(C(=O)C[C@@H]3N=C(c4ccc(Cl)cc4)c4c(sc(C)c4C)-n4c(C)nnc43)CC2)cc1C#CCN.Cl [5-28′, methyl (S)-2-(3-aminoprop-1-yn-1-yl)-4-(3-(1-(2-(4-(4-chlorophenyl)-2,3,9-trimethyl-6H-thieno[3,2-f][1,2,4]triazolo[4,3-a][1,4]diazepin-6-yl)acetyl)piperidine-4-carboxamido)prop-1-yn-1-yl)benzoate hydrochloride]	+++ (the degrading capacity was reduced by 70% or more)
COC(=O)c1ccc(N2CCN(CC3CCN(C(=O)C[C@@H]4N=C(c5ccc(Cl)cc5)c5c(sc(C)c5C)-n5c(C)nnc54)CC3)CC2)cc1C#CCN.Cl [5-29′, methyl (S)-2-(3-aminoprop-1-yn-1-yl)-4-(4-((1-(2-(4-(4-chlorophenyl)-2,3,9-trimethyl-6H-thieno[3,2-f][1,2,4]triazolo[4,3-a][1,4]diazepin-6-yl)acetyl)piperidin-4-yl)methyl)piperazin-1-yl)benzoate hydrochloride]	+++ (the degrading capacity was reduced by 70% or more)
COC(=O)c1ccc(N2CCN(C(=O)CCNC(=O)C[C@@H]3N=C(c4ccc(Cl)cc4)c4c(sc(C)c4C)-n4c(C)nnc43)CC2)cc1C#CCN.Cl [5-32′, methyl (S)-2-(3-aminoprop-1-yn-1-yl)-4-(4-(3-(2-(4-(4-chlorophenyl)-2,3,9-trimethyl-6H-thieno[3,2-f][1,2,4]triazolo[4,3-a][1,4]diazepin-6-yl)acetamido)propanoyl)piperazin-1-yl)benzoate hydrochloride]	+++ (the degrading capacity was reduced by 70% or more)
COC(=O)c1cc(N2CCN(C(=O)CCNC(=O)C[C@@H]3N=C(c4ccc(Cl)cc4)c4c(sc(C)c4C)-n4c(C)nnc43)CC2)ccc1C#CCN.Cl [5-33′, methyl (S)-2-(3-aminoprop-1-yn-1-yl)-5-(4-(3-(2-(4-(4-chlorophenyl)-2,3,9-trimethyl-6H-thieno[3,2-f][1,2,4]triazolo[4,3-a][1,4]diazepin-6-yl)acetamido)propanoyl)piperazin-1-yl)benzoate hydrochloride]	++ (the degrading capacity was reduced by 40% to 70% (exclusive of 70))
COC(=O)c1ccc(NC2CCC(NC(=O)C[C@@H]3N=C(c4ccc(Cl)cc4)c4c(sc(C)c4C)-n4c(C)nnc43)CC2)cc1C#CCN (stereo partly drawn) [5-35′, methyl (S)-2-(3-aminoprop-1-yn-1-yl)-4-((4-(2-(4-(4-chlorophenyl)-2,3,9-trimethyl-6H-thieno[3,2-f][1,2,4]triazolo[4,3-a][1,4]diazepin-6-yl)acetamido)cyclohexyl)amino)benzoate trifluoroacetic acid]	+++ (the degrading capacity was reduced by 70% or more)
COC(=O)c1ccc(C(=O)N2CCC3(CC2)CN(C(=O)C[C@@H]2N=C(c4ccc(Cl)cc4)c4c(sc(C)c4C)-n4c(C)nnc42)C3)cc1C#CCN [5-39′, methyl (S)-2-(3-aminoprop-1-yn-1-yl)-4-(2-(2-(4-(4-chlorophenyl)-2,3,9-trimethyl-6H-thieno[3,2-f][1,2,4]triazolo[4,3-a][1,4]diazepin-6-yl)acetyl)-2,7-diazaspiro[3.5]nonane-7-carbonyl)benzoate trifluoroacetic acid]	++ (the degrading capacity was reduced by 40% to 70% (exclusive of 70))
COC(=O)c1ccc(N2CC3(CN(C(=O)C[C@@H]4N=C(c5ccc(Cl)cc5)c5c(sc(C)c5C)-n5c(C)nnc54)C3)C2)cc1C#CCN [5-40′, methyl (S)-2-(3-aminoprop-1-yn-1-yl)-4-(6-(2-(4-(4-chlorophenyl)-2,3,9-trimethyl-6H-thieno[3,2-f][1,2,4]triazolo[4,3-a][1,4]diazepin-6-yl)acetyl)-2,6-diazaspiro[3.3]heptan-2-yl)benzoate trifluoroacetic acid]	+++ (the degrading capacity was reduced by 70% or more)
COC(=O)c1ccc(C(=O)N2CC3(CN(C(=O)C[C@@H]4N=C(c5ccc(Cl)cc5)c5c(sc(C)c5C)-n5c(C)nnc54)C3)C2)cc1C#CCN [5-41′, methyl (S)-2-(3-aminoprop-1-yn-1-yl)-4-(6-(2-(4-(4-chlorophenyl)-2,3,9-trimethyl-6H-thieno[3,2-f][1,2,4]triazolo[4,3-a][1,4]diazepin-6-yl)acetyl)-2,6-diazaspiro[3.3]heptane-2-carbonyl)benzoate trifluoroacetic acid]	+++ (the degrading capacity was reduced by 70% or more)
